Consider six compounds from patent US11572399B2, “Long-acting GIP peptide analogues” (University of Copenhagen, priority 2017, dated 2023).

Data set [1] concerns the target T1, human GIP receptor (Homo sapiens, UniProt P48546).
T1 construct: host or cells: COS-7, transient transfection (calcium phosphate), cDNA in pCMV-Script
T1 sequence (P48546 22-466): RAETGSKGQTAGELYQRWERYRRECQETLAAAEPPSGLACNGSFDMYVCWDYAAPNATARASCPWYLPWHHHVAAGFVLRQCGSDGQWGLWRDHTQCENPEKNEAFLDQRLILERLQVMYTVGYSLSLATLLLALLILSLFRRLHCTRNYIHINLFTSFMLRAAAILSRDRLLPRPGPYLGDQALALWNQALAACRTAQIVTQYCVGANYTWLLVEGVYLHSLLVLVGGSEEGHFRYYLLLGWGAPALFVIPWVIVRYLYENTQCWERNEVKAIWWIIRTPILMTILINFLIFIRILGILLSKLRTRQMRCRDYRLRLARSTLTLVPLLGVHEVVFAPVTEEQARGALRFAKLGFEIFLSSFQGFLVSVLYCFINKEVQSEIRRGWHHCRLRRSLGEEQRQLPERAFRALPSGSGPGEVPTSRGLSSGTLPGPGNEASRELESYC
Put plainly: 125I-human GIP competition binding assay, in the presence and absence of 2% HSA.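 As to all read-outs here: nonspecific binding taken as radioligand bound to untransfected cells, IC50 obtained from nonlinear regression fits.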 The settings on record: for Fold change HSA (2%)/Casein (0.1%): IC50 (plus HSA)/IC50 (minus HSA); for Binding fold (paired): fold decrease in affinity compared to GIP(3-30)NH2.

The target of data set [2] is T1, human GIP receptor. Put plainly: cAMP accumulation assay, antagonism of a GIP-mediated cAMP response (50-80% of max). The format is cell-based. The note with it: for cAMP - antagonisme fold (paired): fold vs GIP(3-30)NH2. As for the experimental part: The day after, the cells were washed twice with Hepes buffered saline (HBS) buffer and incubated with HBS and 1 mM 3-isobutyl-1-methylxanthine (IBMX) for 30 min at 37° C. […] The HitHunter™ cAMP XS assay (DiscoveRx) was carried out according to the manufacturer's instructions.
Background: cAMP levels reflect the balance of adenylyl cyclase and phosphodiesterase activity.

Data set [3] has as its target T1, human GIP receptor. Put plainly: cAMP accumulation assay, agonism (ligand alone). In kind it is cell-based. The settings on record: COS-7, intrinsic cAMP activity; COS-7 cells; Table 1.
[4] abbreviates: Table 3b, initial data, read-out: Binding IC50.
Setting [5] is: binding in 0.1% casein (absence of HSA), log value, read-out: logIC50 0.1% casein (converted).
Setting [6] is: Table 3b, initial data, read-out: cAMP - antagonisme IC50.
Setting [7] is: given as log IC50 (negative sign), transiently transfected COS-7 cells, Table 1, read-out: cAMP antagonism log (converted).
Setting [8] is: heterologous competition binding, transiently transfected COS-7 cells expressing the human GIP receptor, read-out: Binding.
Setting [9] is: transiently transfected COS-7 cells, Table 1 and text, read-out: cAMP antagonism nM (IC50, antagonistic potency).

Peptide text beside a SMILES is read from it. * marks the point of attachment. Palmitoyl = CCCCCCCCCCCCCCCC(=O)*

In general, Emax refers to the size of the effect at its maximum, as opposed to the concentration needed. As to `CCCCCCCCCCCCCCCCCC(=O)NCCCC[C@H](NC(=O)[C@H](CC(=O)O)NC(=O)[C@H](CCSC)NC(=O)[C@H](C)NC(=O)[C@@H](NC(=O)[C@H](CO)NC(=O)[C@H](Cc1ccc(O)cc1)NC(=O)[C@H](CC(=O)O)NC(=O)[C@H](CO)NC(=O)[C@@H](NC(=O)[C@H](Cc1ccccc1)NC(=O)[C@@H](NC(=O)CNC(=O)[C@@H](N)CCC(=O)O)[C@@H](C)O)[C@@H](C)CC)[C@@H](C)CC)C(=O)N[C@H](C(=O)N[C@@H](Cc1c[nH]cn1)C(=O)N[C@@H](CCC(N)=O)C(=O)N[C@@H](CCC(N)=O)C(=O)N[C@@H](CC(=O)O)C(=O)N[C@@H](Cc1ccccc1)C(=O)N[C@H](C(=O)N[C@@H](CC(N)=O)C(=O)N[C@@H](Cc1c[nH]c2ccccc12)C(=O)N[C@@H](CC(C)C)C(=O)N[C@@H](CC(C)C)C(=O)N[C@@H](C)C(=O)N[C@@H](CCC(N)=O)C(=O)N[C@@H](CCCCN)C(N)=O)C(C)C)[C@@H](C)CC` [AT114, [hGIP(3-30)NH2—C18/16]], the “Fold change HSA (2%)/Casein (0.1%)” value on human GIP receptor [1] stood at 11.2. For the same compound, the IC50 at human GIP receptor [1] (setting [4]) was 102 nM; at human GIP receptor [1] (setting [5]) it was 501 nM; on human GIP receptor [2] (setting [6]) it was 29.2 nM; at human GIP receptor [2] (setting [7]) it was 63.1 nM. At human GIP receptor [1] (Table 3b), the “Binding fold (paired)” value was 6.7 fold. Besides, at human GIP receptor [1] (presence vs absence of 2% HSA, proxy for albumin binding), the “Fold change in affinity, IC50 (plus HSA)/IC50 (minus HSA)” value is recorded as 7.7 fold. The “cAMP - antagonisme fold (paired)” value at human GIP receptor [2] (Table 3b) was found to be 2.3 fold. Also, the Emax at human GIP receptor [3] is 39%.

As to `CCCCCCCCCCCC(=O)N[C@H](C(=O)N[C@@H](Cc1ccccc1)C(=O)N[C@H](C(=O)N[C@@H](CO)C(=O)N[C@@H](CC(=O)O)C(=O)N[C@@H](Cc1ccc(O)cc1)C(=O)N[C@@H](CO)C(=O)N[C@H](C(=O)N[C@@H](C)C(=O)N[C@@H](CCSC)C(=O)N[C@@H](CC(=O)O)C(=O)N[C@@H](CCCCN)C(=O)N[C@H](C(=O)N[C@@H](Cc1c[nH]cn1)C(=O)N[C@@H](CCC(N)=O)C(=O)N[C@@H](CCC(N)=O)C(=O)N[C@@H](CC(=O)O)C(=O)N[C@@H](Cc1ccccc1)C(=O)N[C@H](C(=O)N[C@@H](CC(N)=O)C(=O)N[C@@H](Cc1c[nH]c2ccccc12)C(=O)N[C@@H](CC(C)C)C(=O)N[C@@H](CC(C)C)C(=O)N[C@@H](C)C(=O)N[C@@H](CCC(N)=O)C(=O)N[C@@H](CCCCN)C(N)=O)C(C)C)[C@@H](C)CC)[C@@H](C)CC)[C@@H](C)CC)[C@@H](C)O` [AT118, [hGIP(5-30)NH2—C12/5]], on human GIP receptor [1], the “Affinity compared to GIP(3-30)NH2 (in words)” value is “affinities in the same range as GIP(3-30)NH2”. Moreover, the “Fold change HSA (2%)/Casein (0.1%)” value at human GIP receptor [1] stood at 7.7. Also, the IC50 at human GIP receptor [1] (setting [5]) was 126 nM; at human GIP receptor [1] (binding in presence of 2% HSA, read-out: logIC50 2% HSA (converted)), 881 nM; on human GIP receptor [1] (setting [8]) it was 102 nM; at human GIP receptor [2] (setting [9]), 29 nM. In addition, at human GIP receptor [2], the “Ability to antagonize the GIP-mediated cAMP response (in words)” value (“Ability” for short) is “high potent antagonists”. This compound displayed an Emax on human GIP receptor [3] of 0%.

For the compound `CCCCCCCCCCCC(=O)NCCCC[C@H](NC(=O)[C@H](CC(=O)O)NC(=O)[C@H](CCSC)NC(=O)[C@H](C)NC(=O)[C@@H](NC(=O)[C@H](CO)NC(=O)[C@H](Cc1ccc(O)cc1)NC(=O)[C@H](CC(=O)O)NC(=O)[C@H](CO)NC(=O)[C@@H](NC(=O)[C@H](Cc1ccccc1)NC(=O)[C@@H](N)[C@@H](C)O)[C@@H](C)CC)[C@@H](C)CC)C(=O)N[C@H](C(=O)N[C@@H](Cc1c[nH]cn1)C(=O)N[C@@H](CCC(N)=O)C(=O)N[C@@H](CCC(N)=O)C(=O)N[C@@H](CC(=O)O)C(=O)N[C@@H](Cc1ccccc1)C(=O)N[C@H](C(=O)N[C@@H](CC(N)=O)C(=O)N[C@@H](Cc1c[nH]c2ccccc12)C(=O)N[C@@H](CC(C)C)C(=O)N[C@@H](CC(C)C)C(=O)N[C@@H](C)C(=O)N[C@@H](CCC(N)=O)C(=O)N[C@@H](CCCCN)C(N)=O)C(C)C)[C@@H](C)CC` [AT119, [hGIP(5-30)NH2—C12/16]], the “Fold change HSA (2%)/Casein (0.1%)” value on human GIP receptor [1] is on record as 7.2. Besides, the IC50 on human GIP receptor [1] (setting [5]) was 398 nM; on human GIP receptor [2] (setting [9]), 26 nM. At human GIP receptor [3], this compound showed an Emax of 0%.

`CCCCCCCCCCCCCC(=O)N[C@H](C(=O)N[C@@H](Cc1ccccc1)C(=O)N[C@H](C(=O)N[C@@H](CO)C(=O)N[C@@H](CC(=O)O)C(=O)N[C@@H](Cc1ccc(O)cc1)C(=O)N[C@@H](CO)C(=O)N[C@H](C(=O)N[C@@H](C)C(=O)N[C@@H](CCSC)C(=O)N[C@@H](CC(=O)O)C(=O)N[C@@H](CCCCN)C(=O)N[C@H](C(=O)N[C@@H](Cc1c[nH]cn1)C(=O)N[C@@H](CCC(N)=O)C(=O)N[C@@H](CCC(N)=O)C(=O)N[C@@H](CC(=O)O)C(=O)N[C@@H](Cc1ccccc1)C(=O)N[C@H](C(=O)N[C@@H](CC(N)=O)C(=O)N[C@@H](Cc1c[nH]c2ccccc12)C(=O)N[C@@H](CC(C)C)C(=O)N[C@@H](CC(C)C)C(=O)N[C@@H](C)C(=O)N[C@@H](CCC(N)=O)C(=O)N[C@@H](CCCCN)C(N)=O)C(C)C)[C@@H](C)CC)[C@@H](C)CC)[C@@H](C)CC)[C@@H](C)O` [AT121, [hGIP(5-30)NH2—C14/5]]: on human GIP receptor [1], the “Affinity compared to GIP(3-30)NH2 (in words)” value was “affinities in the same range as GIP(3-30)NH2” and the “Fold change HSA (2%)/Casein (0.1%)” value is 5.7. Besides, the IC50 on human GIP receptor [1] (setting [5]) is 158 nM. Besides, on human GIP receptor [2], the “Ability” value is “high potent antagonists”. Further, the IC50 at human GIP receptor [2] (setting [9]) turned out to be 54 nM. This compound displayed an Emax at human GIP receptor [3] of 0%.

Take `CCCCCCCCCCCCCCCC(=O)NCCCC[C@H](NC(=O)[C@H](CCC(=O)O)NC(=O)[C@H](CCSC)NC(=O)[C@H](C)NC(=O)[C@@H](NC(=O)[C@H](CO)NC(=O)[C@H](Cc1ccc(O)cc1)NC(=O)[C@H](CC(=O)O)NC(=O)[C@H](CO)NC(=O)[C@@H](NC(=O)[C@H](Cc1ccccc1)NC(=O)[C@@H](NC(=O)CNC(=O)[C@@H](N)CCC(=O)O)[C@@H](C)O)[C@@H](C)CC)[C@@H](C)CC)C(=O)N[C@H](C(=O)N[C@@H](C)C(=O)N[C@@H](CCC(N)=O)C(=O)N[C@@H](CCC(N)=O)C(=O)N[C@@H](CC(=O)O)C(=O)N[C@@H](Cc1ccccc1)C(=O)N[C@H](C(=O)N[C@@H](CC(N)=O)C(=O)N[C@@H](Cc1c[nH]c2ccccc12)C(=O)N[C@@H](CC(C)C)C(=O)N[C@@H](CC(C)C)C(=O)N[C@@H](C)C(=O)N[C@@H](CCC(N)=O)C(=O)N[C@@H](CCCCN)C(N)=O)C(C)C)[C@@H](C)CC` [AT131, [hGIP(3-30)NH2[D15E; H18A]-C16/16]] (H-EGTFISDYSIAMEK(Palmitoyl)IAQQDFVNWLLAQK-NH2; N-terminus assumed): the IC50 on human GIP receptor [1] (setting [4]) was 6510 nM; at human GIP receptor [1] (setting [8]) it was 6510 nM; on human GIP receptor [2] (setting [6]), 65 nM; on human GIP receptor [2] (setting [7]) it was 39.8 nM. For the same compound, the “Binding fold (paired)” value on human GIP receptor [1] (Table 3b) turned out to be 49 fold. Moreover, the “cAMP - antagonisme fold (paired)” value on human GIP receptor [2] (Table 3b) worked out at 1.1 fold. For the same compound, the Emax on human GIP receptor [3] worked out at 35%.

As to `CCCCCCCCCCCCCCCC(=O)N[C@H](C(=O)N[C@@H](Cc1ccccc1)C(=O)N[C@H](C(=O)N[C@@H](CO)C(=O)N[C@@H](CC(=O)O)C(=O)N[C@@H](Cc1ccc(O)cc1)C(=O)N[C@@H](CO)C(=O)N[C@H](C(=O)N[C@@H](C)C(=O)N[C@@H](CCSC)C(=O)N[C@@H](CC(=O)O)C(=O)N[C@@H](CCCNC(=N)N)C(=O)N[C@H](C(=O)N[C@@H](CCCCN)C(=O)N[C@@H](CCC(N)=O)C(=O)N[C@@H](CCC(N)=O)C(=O)N[C@@H](CC(=O)O)C(=O)N[C@@H](Cc1ccccc1)C(=O)N[C@H](C(=O)N[C@@H](CC(N)=O)C(=O)N[C@@H](Cc1c[nH]c2ccccc12)C(=O)N[C@@H](CC(C)C)C(=O)N[C@@H](CC(C)C)C(=O)N[C@@H](C)C(=O)N[C@@H](CCC(N)=O)C(=O)N[C@@H](CCCNC(=N)N)C(N)=O)C(C)C)[C@@H](C)CC)[C@@H](C)CC)[C@@H](C)CC)[C@@H](C)O` [AT133, [hGIP(5-30)NH2[K16R; H18K; K30R]-C16/5]] (Palmitoyl-TFISDYSIAMDRIKQQDFVNWLLAQR-NH2), the “Fold change HSA (2%)/Casein (0.1%)” value at human GIP receptor [1] is recorded as 1.3. Also, the results for the IC50 on human GIP receptor [1] (setting [5]) and on human GIP receptor [1] (setting [8]) were 1580 nM and 1720 nM, respectively. Moreover, the “Ability” value on human GIP receptor [2] was “failed to antagonize”. Besides, on human GIP receptor [3], the Emax is 0%.
